Values of other authors in article PMC6530635, “A Novel Single-Site Mutation in the Catalytic Domain of Protoporphyrinogen Oxidase IX (PPO) Confers Resistance to PPO-Inhibiting Herbicides” (Frontiers in Plant Science, 2019).

System: Amaranthus palmeri MIS-D population
Set-up: method as in Salas-Perez et al., 2017
Conditions: MIS-D field population; 1X dose; ref Salas-Perez et al., 2017; cited from earlier work

SMILES: Cc1nn(-c2cc(CC(Cl)C(=O)O)c(Cl)cc2F)c(=O)n1C(F)F (stereo not shown) [Carfentrazone]
- Frequency of resistant plants: 20%
